These results are taken from patent US12048703B2, “Use of small molecule FAK activators to promote mucosal healing” (Regents of the University of Minnesota, priority 2018, dated 2024).

The target in one data set is T1, FAK (Homo sapiens, UniProt Q05397).
T1 construct: endogenous in cells; host or cells: Caco-2
The experiment in a line: FAK activation (FAK-Tyr-397 phosphorylation) by western blotting in Caco-2 cells in suspension. As to conditions: for basal FAK-Tyr-397 phosphorylation: ambient pressure, varying concentrations; for FAK activation (FAK-Tyr-397 phosphorylation): 10 nM, Caco-2 cells; for FAK phosphorylation: 100 pm-1 nM. Format: cell-based. From the text:
FAK-Y397 western blotting: For studies of FAK activation, cells were maintained at ambient or increased pressure in bacteriologic plastic dishes pacificated with heat-inactivated bovine serum albumin to prevent adhesion and avoid adhesion-associated background FAK activation. Cells were lysed in lysis buffer, resolved by 10% SDS-PAGE, transferred to nitrocellulose and blotted with antibody to Tyr-397-phosphorylated FAK (Rabbit monoclonal antibody, ab81298, Abcam, USA) and anti-rabbit 680 (LI-COR, USA), before quantitation using Kodak Scientific Imaging Systems 1D, V.3.5.4 within the linear range of exposure (Oncotarget 2017). Total FAK (Primary antibody: Anti-FAK, clone 4.47 Merck, Germany and secondary antibody: anti-mouse 800, LI-COR, USA) served as a protein loading control.
For orientation: Immunoblotting shows a protein as a band on a membrane.

For another data set, the system named is Caco-2 monolayers. The data set can be described thus: Closure of circular wounds in Caco-2 monolayers on collagen I. Format: cell-based, human. As to conditions: for monolayer wound closure: 10 nM, Caco-2 on collagen I; for Caco-2 monolayer wound closure: concentration not given.
The target in the next data set is T2, SHP2 (Homo sapiens, UniProt Q06124).
T2 sequence (Q06124 1-593): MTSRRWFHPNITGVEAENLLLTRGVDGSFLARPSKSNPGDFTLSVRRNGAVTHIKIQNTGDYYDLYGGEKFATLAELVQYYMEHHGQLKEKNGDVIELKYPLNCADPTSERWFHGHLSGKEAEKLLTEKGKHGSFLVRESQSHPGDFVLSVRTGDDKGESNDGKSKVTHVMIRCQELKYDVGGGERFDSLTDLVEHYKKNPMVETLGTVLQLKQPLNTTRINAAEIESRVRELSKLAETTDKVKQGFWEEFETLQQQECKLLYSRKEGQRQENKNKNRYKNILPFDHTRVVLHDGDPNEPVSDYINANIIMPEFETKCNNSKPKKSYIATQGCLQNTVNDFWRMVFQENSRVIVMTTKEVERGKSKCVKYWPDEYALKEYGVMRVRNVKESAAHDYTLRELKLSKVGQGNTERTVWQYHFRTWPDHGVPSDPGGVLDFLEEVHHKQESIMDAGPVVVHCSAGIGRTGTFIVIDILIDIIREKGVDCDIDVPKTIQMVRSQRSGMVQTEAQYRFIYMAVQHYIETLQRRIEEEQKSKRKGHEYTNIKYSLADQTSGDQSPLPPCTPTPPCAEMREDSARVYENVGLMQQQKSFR
The data set can be described thus: SHP2 dephosphorylation of a synthetic substrate. In kind it is biochemical. The conditions noted are these: 100 nM; vs. positive control reaction.

Structures are written as SMILES. Entries after “also recorded” stand apart in the source; their conditions may differ.

T1 sequence (Q05397 whole entry): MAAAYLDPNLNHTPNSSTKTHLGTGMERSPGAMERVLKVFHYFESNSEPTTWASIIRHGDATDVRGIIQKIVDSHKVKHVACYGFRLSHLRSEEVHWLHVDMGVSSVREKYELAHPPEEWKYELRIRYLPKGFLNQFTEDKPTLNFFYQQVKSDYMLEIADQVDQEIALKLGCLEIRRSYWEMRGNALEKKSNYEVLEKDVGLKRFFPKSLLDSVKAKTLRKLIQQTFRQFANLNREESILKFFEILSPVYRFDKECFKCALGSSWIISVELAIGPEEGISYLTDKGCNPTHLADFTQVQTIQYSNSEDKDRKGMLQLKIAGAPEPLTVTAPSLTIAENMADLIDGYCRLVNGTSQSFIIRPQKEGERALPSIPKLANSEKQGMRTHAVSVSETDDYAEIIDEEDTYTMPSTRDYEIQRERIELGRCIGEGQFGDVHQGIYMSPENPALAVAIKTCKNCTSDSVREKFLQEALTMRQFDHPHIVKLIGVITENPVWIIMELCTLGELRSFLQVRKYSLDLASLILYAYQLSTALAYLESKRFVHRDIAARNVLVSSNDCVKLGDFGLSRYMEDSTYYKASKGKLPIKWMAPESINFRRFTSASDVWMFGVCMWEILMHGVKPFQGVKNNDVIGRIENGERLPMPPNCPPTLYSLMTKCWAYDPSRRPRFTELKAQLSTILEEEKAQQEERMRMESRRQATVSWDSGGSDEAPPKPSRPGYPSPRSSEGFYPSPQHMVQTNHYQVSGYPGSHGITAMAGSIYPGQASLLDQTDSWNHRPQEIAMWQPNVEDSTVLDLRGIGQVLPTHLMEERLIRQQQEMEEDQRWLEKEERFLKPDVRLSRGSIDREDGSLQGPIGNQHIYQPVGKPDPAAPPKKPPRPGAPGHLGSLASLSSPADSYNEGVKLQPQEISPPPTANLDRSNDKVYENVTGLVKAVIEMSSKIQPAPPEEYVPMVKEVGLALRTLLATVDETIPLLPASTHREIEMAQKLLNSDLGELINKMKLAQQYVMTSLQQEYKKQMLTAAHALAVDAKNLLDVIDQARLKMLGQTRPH

In the case of `Cc1ccccc1[C@@H]1CCCN1C(=O)C[C@H](NC(N)=O)c1cccs1` [Compound 2, [(1S)-3-[(2S)-2-(2-methylphenyl)pyrrolidin-1-yl]-3-oxo-1-thiophen-2-ylpropyl]urea], the FAK activation entry at FAK (1 nM) is “demonstrated FAK activation”; on FAK (10 and 100 nM), “modest FAK activation”; at FAK (concentration not given), “activated FAK”. For the same molecule, the “basal FAK-Tyr-397 phosphorylation” value on FAK is reported as “increase basal FAK-Tyr-397 phosphorylation”. Further, the wound closure rate result with Caco-2 monolayers (100 μM, Caco-2 on Collagen-I) is given as “Increased wound closure rates”.

For `COc1ccc(C2CCCN2C(=O)CC(NC(N)=O)c2ccccc2Cl)cc1OC` (centres unmarked) [Compound 4, 1-(2-chlorophenyl)-3-[2-(3,4-dimethoxyphenyl)pyrrolidin-1-yl]-3-oxopropylurea], the FAK activation entry was “no change was observed” on FAK (1 nM) and “especially potent” on FAK (concentration not given). In addition, the entries for the “FAK activation (FAK-Tyr-397 phosphorylation)” value at FAK and at FAK (listed as D4) were “can activate FAK” and “activate FAK”, respectively. Further, at FAK, the “basal FAK-Tyr-397 phosphorylation” value is recorded as “increase basal FAK-Tyr-397 phosphorylation”. The monolayer wound closure result in the data set with Caco-2 monolayers is “Increased wound closure rates; also recorded: can promote Caco-2 monolayer wound healing”; with Caco-2 monolayers (listed as D4), “accelerate the closure of circular wounds”. Besides, the “SHP2 dephosphorylation of a synthetic substrate” value at SHP2 was “neither D3 nor D4 (100 nM) blocks SHP2 dephosphorylation”.

`O=C(Nc1cc(C(F)(F)F)ccc1N1CCOCC1)N1CCCC1c1ccncc1` (centres unmarked) [Compound M3]: at FAK, the “FAK activation (FAK-Tyr-397 phosphorylation)” value was “proved active; also recorded: activate FAK Y-397 phosphorylation” and the FAK phosphorylation result is recorded as “activate FAK phosphorylation”. Besides, the “Caco-2 monolayer wound closure” value in the data set on Caco-2 monolayers is listed as “promote Caco-2 monolayer wound closure”.

Turning to `COc1ccc(C(CNC(=O)Nc2cc(C(F)(F)F)ccc2N2CCOCC2)N(C)C)cc1` (centres unmarked) [Compound M6], on FAK, the “FAK activation (FAK-Tyr-397 phosphorylation)” value is reported as “proved active; also recorded: activate FAK Y-397 phosphorylation” and the FAK phosphorylation result was “activate FAK phosphorylation”. Besides, the “Caco-2 monolayer wound closure” value in the data set with Caco-2 monolayers is “promote Caco-2 monolayer wound closure”.

Take `O=C(Nc1cc(C(F)(F)F)ccc1N1CCOCC1)N1CCCC1C1CCCCC1` (centres unmarked) [Compound M11]: on FAK, the “FAK activation (FAK-Tyr-397 phosphorylation)” value is reported as “proved active; also recorded: activate FAK Y-397 phosphorylation” and the FAK phosphorylation entry is given as “activate FAK phosphorylation”. For the same molecule, the “Caco-2 monolayer wound closure” value in the data set with Caco-2 monolayers was “promote Caco-2 monolayer wound closure”.

`O=C(Nc1cc(C(F)(F)F)ccc1N1CCOCC1)N1CCCC1c1ccccc1` (centres unmarked) [Compound M12]: the “FAK activation (FAK-Tyr-397 phosphorylation)” value on FAK is on record as “proved active; also recorded: activate FAK Y-397 phosphorylation”. In addition, the monolayer wound closure result in the data set on Caco-2 monolayers is listed as “stimulates monolayer wound closure”.

With `CS(=O)(=O)c1cccc(CNc2nc(Nc3ccc4c(c3)CCC(=O)N4)ncc2C(F)(F)F)c1` [PF-573228, reference compound], the “basal FAK autophosphorylation” value on FAK is given as “inhibits basal FAK autophosphorylation”. Moreover, the “basal rates of wound healing in vitro” value with Caco-2 monolayers is reported as “reduces basal rates of wound healing in vitro”.
